According to patent US4694006A, “Acyl- or acyloxymethyl-allopurinol prodrugs” (priority 1983, dated 1987):
≈ marks a conversion by molar mass, not a printed value. Where a name gives a salt, the structure may show the parent alone. Read-outs that look alike come from different tables or passages of the source.

What was measured:
[1] = In-vitro cleavage of allopurinol derivatives to allopurinol in pH 7.4 buffer at 37° C; type: physicochemical; details: read-out: Half-time (t0.5) of the conversion to allopurinol, pH 7.4 buffer (converted)
Protocol: (§1) In-vitro cleavage of allopurinol derivatives
(§2) Solutions of various derivatives of allopurinol in aqueous buffer solutions or 80% human plasma solutions (pH 7.4) were kept at 37° C. The initial concentration of the derivatives was in the range 0.01-0.1 mg/ml. At various times an aliquot of the solutions was withdrawn and analyzed by HPLC for remaining derivative as well as for allopurinol. For the plasma solutions the aliquot withdrawn was deproteinized with ethanol or trichloroacetic acid and after centrifugation, the clear supernatant was injected on HPLC.
(§3) An HPLC method was used for the determination of allopurinol and its derivatives. In this method a reversed-phase LiChrosorb RP-8 column (250×4 mm) was eluated at ambient temperature with mixtures of methanol and 0.01M acetate buffer pH 4.5 or methanol and 0.03M phosphate buffer pH 7.0. The composition of the eluant was adjusted for each compound in order to provide an appropriate retention time. The flow rate was 1.2 ml/min and the column effluent was monitored spectrophotometrically at 252 nm or 274 nm. Quantitation of the compounds was done by measurement of peak heights.
(§4) The half-times of allopurinol formation from various derivatives at physiological conditions of pH and temperature are given in Table 2. It can be seen that in the presence of human plasma the rate of degradation is strongly accelerated, thus showing the susceptibility of the derivatives to undergo conversion into the parent active compound at conditions simiar to those prevailing in vivo.

[2] = In-vitro cleavage of allopurinol derivatives to allopurinol in 80% human plasma (pH 7.4) at 37° C; type: in vitro ADME; details: 80% plasma, pH 7.4, 37° C, read-out: Half-time (t0.5) of the conversion to allopurinol, 80% human plasma (converted)
Protocol: as §1, §2, §3, §4

physchem = details: water
Protocol: (§5) The water-solubility and lipophilicity of the allopurinol drugs
(§6) The apparent partition coefficients (P) for some allopurinol derivatives and allopurinol were measured using the widely used 1-octanol-water system. Similarly, the solubility of the derivatives in water or aqueous buffer solutions was determined.

[3] = Protocol: as §5, §6
[4] = sodium salt of allopurinol at 0.5-1%; cited from earlier work
[5] = in vivo; cited from earlier work

half-life [1] [min]	half-life [2] [min]	solubility (physchem) [µg/mL]	log P [3]	log P ([3]; pH 8)	Compound	pH of infusion fluids [4]	adverse effects of administration of infusion fluids [5]
3240	22	1500 (≈ 6350 µM)	0.33		CCCC(=O)OCn1cc2c(=O)[nH]cnc2n1 [2-(Butyryloxymethyl)allopurinol]		
145	140				CN(C)CCCC(=O)OCn1ncc2c(=O)[nH]cnc21 [1-[4-(N,N-Dimethylamino)butyryloxymethyl]allopurinol (hydrochloride)]		
17	6	> 400000		0.19	CC(C)C[C@H](N)C(=O)OCn1ncc2c(=O)[nH]cnc21 [1-(L-Leucyloxymethyl)allopurinol, 1-(L-Leucyloxymethyl)allopurinol (hydrobromide)]		
< 1	< 1				CC(N)C(=O)OCn1cc2c(=O)n(COC(=O)C(C)N)cnc2n1 (racemic) [2,5-bis(DL-Alanyloxymethyl)allopurinol, 2,5-bis-(DL-Alanyloxymethyl)allopurinol (dihydrobromide)]		
36	2.5	110 (≈ 533 µM)	0.85		CCCC(=O)n1ncc2c(O)ncnc21 [1-(Butyryl)allopurinol]		
26	6	750 (≈ 4210 µM)	-0.35		CC(=O)n1ncc2c(O)ncnc21 [1-(Acetyl)allopurinol]		
30	4	300 (≈ 1560 µM)	0.30		CCC(=O)n1ncc2c(O)ncnc21 [1-(Propionyl)allopurinol]		
50	12	> 400000		1.27	CCCN(CCC)CC(=O)OCn1ncc2c(=O)[nH]cnc21 [1-(N,N-Dipropylglycyloxymethyl)allopurinol (hydrochloride)]		
					Oc1ncnc2[nH]ncc12 [sodium salt of allopurinol]	10.5-11.5	may cause thrombophlebitis or perivascular inflammation
		1700 (≈ 6790 µM)	0.79		CC(C)(C)C(=O)OCn1cc2c(=O)[nH]cnc2n1 [2-(Pivaloyloxymethyl)allopurinol, 2-(pivaloyloxymethyl)allopurinol]		
14200	4		1.50		O=C(OCn1ncc2c(=O)[nH]cnc21)c1ccccc1 [1-(Benzoyloxymethyl)allopurinol]		
11600	9		0.60		CCCC(=O)OCn1ncc2c(=O)[nH]cnc21 [1-(Butyryloxymethyl)allopurinol]		
4860	504	33000 (≈ 103000 µM)	-0.22		CCN(CC)C(=O)CCC(=O)OCn1ncc2c(O)ncnc21 [1-[3-(N,N-Diethylcarbamoyl)propionyloxymethyl]allopurinol]		
1500	22	50 (≈ 149 µM)	1.82		CCCC(=O)OCn1cnc2c(cnn2COC(=O)CCC)c1=O [1,5-bis(Butyryloxymethyl)allopurinol]		
1560	21	93 (≈ 343 µM)	0.27		O=C(OCn1ncc2c(=O)[nH]cnc21)c1cccnc1 [1-(Nicotinoyloxymethyl)allopurinol]		
		520 (≈ 2080 µM)	1.07		CC(C)(C)C(=O)OCn1ncc2c(O)ncnc21 [1-(Pivaloyloxymethyl)allopurinol]		
15	11	> 500000			CC(N)C(=O)OCn1ncc2c(=O)[nH]cnc21 (racemic) [1-(DL-Alanyloxymethyl)allopurinol (hydrobromide)]		
		20 (≈ 54.9 µM)	2.50		CC(C)(C)C(=O)OCn1cnc2c(cnn2COC(=O)C(C)(C)C)c1=O [1,5-bis(Pivaloyloxymethyl)allopurinol]		
1.5	< 1	> 200000			CN(C)CC(=O)n1ncc2c(=O)[nH]cnc21 [1-(N,N--Dimethylglycyl)allopurinol, 1-(N,N-Dimethylglycyl)allopurinol (hydrochloride)]		
< 1	< 1				O=C(CCl)n1ncc2c(=O)[nH]cnc21 [1-(Chloroacetyl)allopurinol]		
			2.34		CC(C)(C)C(=O)OCn1cc2c(=O)n(COC(=O)C(C)(C)C)cnc2n1 [2,5-bis(Pivaloyloxymethyl)allopurinol]		
72	7	> 500000		-0.49	CN(C)CC(=O)OCn1ncc2c(=O)[nH]cnc21 [1-(N,N-Dimethylglycyloxymethyl)allopurinol (hydrochloride)]		
21	17	> 400000		0.72	CCN(CC)C(C)C(=O)OCn1ncc2c(=O)[nH]cnc21 (racemic) [1-(DL-N,N-Diethylalanyloxymethyl)allopurinol (hydrochloride)]		
40	9	> 200000		0.40	NC(Cc1ccccc1)C(=O)OCn1ncc2c(=O)[nH]cnc21 (racemic) [1-(DL-Phenylalanyloxymethyl)allopurinol, 1-(DL-Phenylalanyloxymethyl)allopurinol (hydrobromide)]		
	20		0.21		CCOC(=O)OCn1ncc2c(O)ncnc21 [1-(Ethoxycarbonyloxymethyl)allopurinol]		
20	4		1.20		O=C(c1ccccc1)n1ncc2c(=O)[nH]cnc21 [1-(Benzoyl)allopurinol]		
2100	32	94 (≈ 279 µM)	1.60		CCCC(=O)OCn1cc2c(=O)n(COC(=O)CCC)cnc2n1 [2,5-bis(Butyryloxymethyl)allopurinol]		
26	9	> 500000			NCC(=O)OCn1ncc2c(=O)[nH]cnc21 [1-(Glycyloxymethyl)allopurinol, 1-(Glycyloxymethyl)allopurinol (hydrochloride)]		
20	3	> 200000		-0.15	NC(C(=O)OCn1ncc2c(=O)[nH]cnc21)c1ccccc1 (racemic) [1-(DL-Phenylglycyloxymethyl)allopurinol, 1-(DL-Phenylglycyloxymethyl)allopurinol (hydrobromide)]		
	90				CCCCNC(=O)n1ncc2c(=O)[nH]cnc21 [1-(N--Butylcarbamoyl)allopurinol, 1-(N-Butylcarbamoyl)allopurinol]		

Compound	half-life [1] [min]	half-life [2] [min]	solubility (physchem) [µg/mL]	log P [3]	log P ([3]; pH 8)	pH of infusion fluids [4]	adverse effects of administration of infusion fluids [5]
CC(=O)OCn1ncc2c(O)ncnc21 [1-(Acetoxymethyl)allopurinol, 1-(Acetyloxymethyl)allopurinol]	5220	31	580 (≈ 2790 µM)	-0.35			
CC(=O)OCn1cc2c(=O)n(COC(C)=O)cnc2n1 [2,5-bis(Acetoxymethyl)allopurinol]	900	51	2900 (≈ 10300 µM)				
